Measured values taken from patent US9845292B2 (Max-Planck-Gesellschaft zur Förderung der Wissenschaften …, priority 2013, dated 2017).
“Also recorded” adds a separate entry of the source. Where two headings read alike, the source gives them in different places.

Columns and labels:
N2a neuroblastoma cells = assay: N2a cellular assay (neurite outgrowth); format: cell-based; details: for optimal concentration for enhancement of neurite outgrowth: U-shaped dose-dependency, N2a-cells; for effect of high concentrations on neuronal differentiation: FIG. 1A, 1D; for enhancement of neurite outgrowth of N2a cells: compared to unselective FKBP ligand FK506, FIG. 1
Experimental: At day one N2a cells were plated into 24-well plates with cover slips (pretreated with polylysine) at a density of 35,000 cells/well and cultured with DMEM (incl. FCS 10% and Pen/Strep 1%) for 24 h. Next, cells were transfected with 80 ng expression plasmids encoding Venus as well as 720 ng pRK5 (mock transfection) in a total volume of 500 μl starvation media containing different concentrations of compounds or DMSO for 36 h (media without FCS; induction of neurite outgrowth). Therefore media was removed and replaced by 400 μl DMEM (empty). Next an equivalent volume of plasmids were given to 50 μl OPTIMEM and incubated for 5 min at RT. Additionally 1.5 μl Lipofectamine 2000 was separately dissolved in 50 μl OPTIMEM. After 5 min both solutions (plasmids and Lipofactamine 2000 containing media) were combined and incubated again for another 20 min. After that 100 μl of this mixture was given to 400 μl media per well. (See also protocol of the provider—Life Technologies).
On the next day cells were washed with PBS and incubated for 30 min with 300 μl PFA (4%) and sucrose (5%) to fix cells. After fixation cells were washed three times, mounted onto microscope slides using 4 μl Vectashield (mounting media) and analyzed by fluorescence microscopy. Each bar represents the mean of the neurite length of 30-50 cells after the indicated treatment (FIGS. 1-2).

FKBP52 = molecular target: T1, FKBP52 (Homo sapiens, UniProt Q02790); assay: Fluorescence polarization binding assay, FK1-domain of FKBP52WT with tracer F2 (selectivity FKBP51 vs. FKBP52); details: selectivity factor over FKBP52
T1 construct: Purified FK1-domains of FKBP51WT (4.5 nM) with F4 (3 nM), FKBP52WT (400 nM) with F2 (20 nM); implied by Ni-NTA purification) (N); made in house; host or cells: E. coli BL21(DE3)pLysS
T1 sequence (Q02790 50-138 limits assumed): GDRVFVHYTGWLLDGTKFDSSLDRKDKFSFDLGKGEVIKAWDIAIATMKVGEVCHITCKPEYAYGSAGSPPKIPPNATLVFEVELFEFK
Summary of the method: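 Compounds titrated against FK1 domain of FKBP52 WT with fluorescent tracer F2, in duplicate; competition curves fitted to four-parameter logistic for IC50. Ki derived from exact competitive-binding equation using tracer Kd; selectivity expressed as Ki(FKBP51)/Ki(FKBP52).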

FKBP51 [1] = molecular target: T2, FKBP51 (Homo sapiens, UniProt Q13451); assay: Fluorescence polarization binding assay, FK1-domain of FKBP51WT with tracer F4; design: Purified FK1-domains of FKBP51WT (4.5 nM) with F4 (3 nM), FKBP52WT (400 nM) with F2 (20 nM); made in house; host or cells: E. coli BL21(DE3)pLysS
T2 sequence (Q13451 42-130 limits assumed): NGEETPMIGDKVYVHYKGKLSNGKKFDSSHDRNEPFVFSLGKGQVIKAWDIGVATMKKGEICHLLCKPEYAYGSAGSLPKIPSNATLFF
Summary of the method: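 Competitive fluorescence polarization with tracer F4 and FKBP51 FK1 domain (wild type), compounds titrated by serial dilution from DMSO stock, run in duplicate. IC50 from four-parameter logistic fit; inhibition constants from an exact competitive-binding equation using tracer and inhibitor Kd values.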

C57Bl/6N mice = assay: Forced swim test (FST); format: in vivo; details: FIG. 2D
Experimental: For the forced swim test (FST), male C57Bl/6N mice at the age of 12 weeks were single housed and acclimated to the room for 2 weeks before the experiment. […] The next morning, mice were subjected to a FST to assess stress-coping behavior. Each mouse was put into a 2 l glass beaker for 6 min and analyzed using an automated video-tracking system (Anymaze 4.20, Stoelting, Ill., USA). Time spent immobile (floating) and time spent struggling was scored by an experienced observer, blind to treatment or condition of the animals.

C57BL/6 mice = assay: Combined Dex/CRH test (neuroendocrine analysis, plasma CORT); format: in vivo; details: 20 mg/kg i.p.; FIG. 2E
Experimental: Briefly, a reference blood sample was collected by an incision in the ventral tail vessel at 1500, three days prior to the actual test (‘untreated’ value). […] The injected volume was 0.3 ml for each injection. At 1500, a second blood sample was drawn from the tail vessel (‘after Dex’ value), immediately followed by an i.p. injection of CRH (0.15 mg/kg). Thirty minutes later, the mice were sacrificed and trunk blood was collected (‘after CRH’ value).

FKBP51 [2] = molecular target: T2, FKBP51; assay: Fluorescence polarization binding assay, FK1-domain of FKBP51WT with tracer F4; design: Purified FK1-domains of FKBP51WT (4.5 nM) with F4 (3 nM), FKBP52WT (400 nM) with F2 (20 nM); implied by Ni-NTA purification) (N); made in house; host or cells: E. coli BL21(DE3)pLysS; details: compounds B01-C25; read-out: Affinity(Ki) for FKBP51
Experimental: The target protein was also diluted in this assay buffer at double the highest concentration required for the final sample. This protein stock was used for a 1:1 serial dilution.
The inventive compound was dissolved in DMSO to reach a 100-times concentrated stock solution. This was used for a 1:1 serial dilution in DMSO.
For FKBP12, −51, and −52 the binding assays were performed in duplicates in the plate format.
The competition curves were analyzed by using SigmaPlot9. Data were fitted to a four parameter logistic curve to deduce the IC50 values. […]
Inhibition constants were measured in a fluorescence polarization binding assay by titrating the compounds.

In the case of C[C@]12CCC(=O)C=C1CC[C@@H]1[C@@H]2[C@@H](O)C[C@]2(C=O)[C@@H](C(=O)CO)CC[C@@H]12 [Aldosterone, reference compound], the “optimal concentration for enhancement of neurite outgrowth” value (N2a neuroblastoma cells) is reported as 100 nM.
For COc1ccc(CC[C@@H](OC(=O)[C@@H]2CCCCN2C(=O)[C@H](c2cc(OC)c(OC)c(OC)c2)C2CCCCC2)c2cccc(OCC(=O)O)c2)cc1OC [Compound A17, 2-(3-((R)-1-(((S)-1-((S)-2-Cyclohexyl-2-(3,4,5-trimethoxyphenyl)acetyl)piperidine-2-carbonyl)oxy)-3-(3,4-dimethoxyphenyl)propyl)phenoxy)acetic acid], the “Ki(FKBP51)/Ki(FKBP52)” value (FKBP52; FKBP52WT (400 nM) with F2 (20 nM), A series) was “++++ (>5000 ++++)”, the “rescue of reduced neurite length triggered by Ru26988” value (N2a neuroblastoma cells; 1 μM Ru26988, 10 nM A17, FIG. 2A, 2B) was “rescues reduced neurite length” and the “protection of neurite outgrowth from the suppressing effect of high steroid concentrations” value (N2a neuroblastoma cells; 1 μM aldosterone or 1 μM RU26988, FIG. 2A-2C) was “able to protect the neutrite outgrowth of N2a from the suppressing effect of high steroid concentrations”. For the same molecule, the “effect of high concentrations on neuronal differentiation” value (N2a neuroblastoma cells) was “do not lead to reduction of the neuronal differentiation”, the “rescue of reduction of neurite outgrowth triggered by aldosterone” value (N2a neuroblastoma cells; aldosterone 1 μM, FIG. 2B, 2C) was “reverts the reduction of neurite outgrowth” and the “enhancement of neurite outgrowth of N2a cells” value (N2a neuroblastoma cells) was “stronger enhancement of neurite outgrowth; also recorded: promote neurite outgrowth in N2a cells more potently compared to FK506”. The Ki (FKBP51 [1]) was < 0.1 µM.
For COc1ccc(CC[C@@H](OC(=O)[C@@H]2CCCCN2C(=O)[C@H](c2cc(OC)c(OC)c(OC)c2)C2CCCCC2)c2cccc(OCCN3CCOCC3)c2)cc1OC [Compound A18], the “effect of high concentrations on neuronal differentiation” value (N2a neuroblastoma cells) was “do not lead to reduction of the neuronal differentiation”, the “enhancement of neurite outgrowth of N2a cells” value (N2a neuroblastoma cells) was “stronger enhancement of neurite outgrowth; also recorded: promote neurite outgrowth in N2a cells more potently compared to FK506” and the “floating time in forced swim test” value (C57Bl/6N mice; 20.0 mg/kg) was “reduced floating time”. The “struggling time in forced swim test” value (C57Bl/6N mice; 20.0 mg/kg) was “enhanced struggling time”, the “stress-coping behavior in the Forced Swim Test” value (C57Bl/6N mice; single injection 20.0 mg/kg, 16 hours prior to testing) was “elicited a more active stress-coping behavior” and the “regulation of stress hormone secretion” value (C57BL/6 mice) was “enhances the regulation of stress hormone secretion”.
COc1cc([C@@H](C(=O)N2CCCC[C@H]2C(=O)OCCCO)C2CCCCC2)cc(OC)c1OC [Compound C22] was tested, and the “Ki(FKBP51)/Ki(FKBP52)” value (FKBP52; compounds B01-C25) was “+++ (>500 +++)” and the Ki (FKBP51 [2]) was 1 to 10 µM.
In the case of COc1cc([C@@H](C(=O)N2CCCC[C@H]2C(=O)OC(C)CO)C2CCCCC2)cc(OC)c1OC (some centres unmarked) [Compound C25], the “Ki(FKBP51)/Ki(FKBP52)” value (FKBP52; compounds B01-C25) is reported as “++ (>50 ++)” and the Ki (FKBP51 [2]) is reported as 1 to 10 µM.
With C=CC[C@@H]1/C=C(\C)C[C@H](C)C[C@H](OC)[C@H]2O[C@@](O)(C(=O)C(=O)N3CCCC[C@H]3C(=O)O[C@H](/C(C)=C/[C@@H]3CC[C@@H](O)[C@H](OC)C3)[C@H](C)[C@@H](O)CC1=O)[C@H](C)C[C@@H]2OC [FK506, reference compound] the “concentrations at which the neurite outgrowth stimulating effect is lost” value (N2a neuroblastoma cells; FIG. 1B) was 300 to 1000 nM.
CC#C[C@]1(O)CC[C@H]2[C@@H]3C=CC4=CC(=O)C=C[C@]4(C)[C@H]3[C@@H](O)C[C@@]21C [Ru26988, RU26988, reference compound] was tested, and the “optimal concentration for enhancement of neurite outgrowth” value (N2a neuroblastoma cells) was 100 nM.
